In PMC11233931, “Remodeling tumor‐associated macrophage for anti‐cancer effects by rational design of irreversible inhibition of mitogen‐activated protein kinase‐activated protein kinase 2” (MedComm, 2024):

Tests used:
Experiment in all cases: Eurofins kinase selectivity profile against 380 other human recombinant kinases (Table S2)
Format in all cases: biochemical
[1] = target: T1, 380 human recombinant protein kinases (Homo sapiens, UniProt Q02779); conditions: MLK2(h), read-out: Inhibition rate
T1 construct: purchased Eurofins (Celle Lévescault)
How it was run: (§1)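 Outsourced panel: 380 human recombinant kinases; inhibitor tested at various concentrations; purpose: MK2 selectivity check.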

[2] = target: T2, 380 human recombinant protein kinases (Homo sapiens, UniProt Q9BZL6); conditions: PKD2(h), read-out: Inhibition rate
T2 construct: purchased Eurofins (Celle Lévescault)
T2 sequence (Q9BZL6 1-878): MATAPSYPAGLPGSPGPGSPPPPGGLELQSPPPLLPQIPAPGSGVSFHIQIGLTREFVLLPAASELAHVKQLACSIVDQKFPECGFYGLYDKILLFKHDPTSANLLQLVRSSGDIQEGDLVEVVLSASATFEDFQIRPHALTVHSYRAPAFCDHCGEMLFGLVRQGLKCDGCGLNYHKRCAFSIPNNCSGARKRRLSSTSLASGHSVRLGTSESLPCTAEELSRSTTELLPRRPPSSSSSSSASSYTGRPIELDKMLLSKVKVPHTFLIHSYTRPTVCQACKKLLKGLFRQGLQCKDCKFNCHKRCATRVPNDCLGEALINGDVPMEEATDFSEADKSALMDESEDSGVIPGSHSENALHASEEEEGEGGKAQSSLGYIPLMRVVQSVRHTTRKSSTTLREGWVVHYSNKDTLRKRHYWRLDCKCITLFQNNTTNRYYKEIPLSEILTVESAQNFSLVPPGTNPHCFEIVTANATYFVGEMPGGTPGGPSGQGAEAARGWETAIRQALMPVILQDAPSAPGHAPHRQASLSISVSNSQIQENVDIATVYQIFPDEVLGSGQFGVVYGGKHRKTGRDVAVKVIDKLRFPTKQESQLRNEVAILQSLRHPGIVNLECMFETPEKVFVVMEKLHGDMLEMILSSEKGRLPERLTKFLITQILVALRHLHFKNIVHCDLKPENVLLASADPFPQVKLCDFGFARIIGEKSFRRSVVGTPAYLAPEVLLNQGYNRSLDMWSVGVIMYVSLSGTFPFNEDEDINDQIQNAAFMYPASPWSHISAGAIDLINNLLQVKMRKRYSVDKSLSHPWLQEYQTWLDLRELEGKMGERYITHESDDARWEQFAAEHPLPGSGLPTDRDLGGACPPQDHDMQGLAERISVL
How it was run: as §1

[3] = target: T3, 380 human recombinant protein kinases (Homo sapiens, UniProt P29323); conditions: EphB2(h), read-out: Inhibition rate
T3 construct: purchased Eurofins (Celle Lévescault)
T3 sequence (P29323 19-1055): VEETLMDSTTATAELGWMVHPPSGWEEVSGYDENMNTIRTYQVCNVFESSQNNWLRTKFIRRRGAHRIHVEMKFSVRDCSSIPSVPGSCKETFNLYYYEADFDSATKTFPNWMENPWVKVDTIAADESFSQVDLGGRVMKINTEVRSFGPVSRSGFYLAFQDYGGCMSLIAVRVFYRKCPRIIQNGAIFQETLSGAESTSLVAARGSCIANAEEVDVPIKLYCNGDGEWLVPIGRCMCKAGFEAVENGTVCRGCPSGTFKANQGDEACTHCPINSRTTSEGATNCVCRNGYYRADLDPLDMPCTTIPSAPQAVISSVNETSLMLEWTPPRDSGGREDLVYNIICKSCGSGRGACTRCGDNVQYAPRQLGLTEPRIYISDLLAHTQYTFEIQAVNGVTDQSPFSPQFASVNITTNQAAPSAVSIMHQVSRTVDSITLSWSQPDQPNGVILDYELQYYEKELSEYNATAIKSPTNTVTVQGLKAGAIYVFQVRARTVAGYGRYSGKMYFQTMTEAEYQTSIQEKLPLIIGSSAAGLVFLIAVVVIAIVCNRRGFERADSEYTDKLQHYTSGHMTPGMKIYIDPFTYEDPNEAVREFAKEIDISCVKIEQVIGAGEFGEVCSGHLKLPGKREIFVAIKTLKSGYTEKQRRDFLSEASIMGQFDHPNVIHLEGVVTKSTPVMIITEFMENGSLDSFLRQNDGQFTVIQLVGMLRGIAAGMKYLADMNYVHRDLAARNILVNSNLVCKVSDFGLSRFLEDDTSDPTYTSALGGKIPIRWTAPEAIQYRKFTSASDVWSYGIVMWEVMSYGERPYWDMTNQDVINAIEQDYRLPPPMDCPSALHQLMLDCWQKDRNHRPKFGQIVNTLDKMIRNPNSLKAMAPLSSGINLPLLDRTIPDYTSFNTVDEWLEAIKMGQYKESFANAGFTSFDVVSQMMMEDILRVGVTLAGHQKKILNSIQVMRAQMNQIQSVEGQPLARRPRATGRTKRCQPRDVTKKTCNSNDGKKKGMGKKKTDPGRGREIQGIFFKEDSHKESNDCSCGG
How it was run: as §1

[4] = target: T4, 380 human recombinant protein kinases (Homo sapiens, UniProt P35916); conditions: Flt4(h), read-out: Inhibition rate
T4 construct: purchased Eurofins (Celle Lévescault)
How it was run: as §1

[5] = target: T5, 380 human recombinant protein kinases (Homo sapiens, UniProt P80192); conditions: MLK1(h), read-out: Inhibition rate
T5 construct: purchased Eurofins (Celle Lévescault)
How it was run: as §1

[6] = target: T6, 380 human recombinant protein kinases (Homo sapiens, UniProt O75716); conditions: STK16(h), read-out: Inhibition rate (%)
T6 construct: purchased Eurofins (Celle Lévescault)
How it was run: as §1

[7] = target: T7, 380 human recombinant protein kinases (Homo sapiens, UniProt P78368); conditions: CK1γ2(h), read-out: Inhibition rate
T7 construct: purchased Eurofins (Celle Lévescault)
How it was run: as §1

[8] = target: T8, 380 human recombinant protein kinases (Homo sapiens, UniProt P19784); conditions: CK2α2(h), read-out: Inhibition rate
T8 construct: purchased Eurofins (Celle Lévescault)
How it was run: as §1

T5 sequence (P80192 whole entry): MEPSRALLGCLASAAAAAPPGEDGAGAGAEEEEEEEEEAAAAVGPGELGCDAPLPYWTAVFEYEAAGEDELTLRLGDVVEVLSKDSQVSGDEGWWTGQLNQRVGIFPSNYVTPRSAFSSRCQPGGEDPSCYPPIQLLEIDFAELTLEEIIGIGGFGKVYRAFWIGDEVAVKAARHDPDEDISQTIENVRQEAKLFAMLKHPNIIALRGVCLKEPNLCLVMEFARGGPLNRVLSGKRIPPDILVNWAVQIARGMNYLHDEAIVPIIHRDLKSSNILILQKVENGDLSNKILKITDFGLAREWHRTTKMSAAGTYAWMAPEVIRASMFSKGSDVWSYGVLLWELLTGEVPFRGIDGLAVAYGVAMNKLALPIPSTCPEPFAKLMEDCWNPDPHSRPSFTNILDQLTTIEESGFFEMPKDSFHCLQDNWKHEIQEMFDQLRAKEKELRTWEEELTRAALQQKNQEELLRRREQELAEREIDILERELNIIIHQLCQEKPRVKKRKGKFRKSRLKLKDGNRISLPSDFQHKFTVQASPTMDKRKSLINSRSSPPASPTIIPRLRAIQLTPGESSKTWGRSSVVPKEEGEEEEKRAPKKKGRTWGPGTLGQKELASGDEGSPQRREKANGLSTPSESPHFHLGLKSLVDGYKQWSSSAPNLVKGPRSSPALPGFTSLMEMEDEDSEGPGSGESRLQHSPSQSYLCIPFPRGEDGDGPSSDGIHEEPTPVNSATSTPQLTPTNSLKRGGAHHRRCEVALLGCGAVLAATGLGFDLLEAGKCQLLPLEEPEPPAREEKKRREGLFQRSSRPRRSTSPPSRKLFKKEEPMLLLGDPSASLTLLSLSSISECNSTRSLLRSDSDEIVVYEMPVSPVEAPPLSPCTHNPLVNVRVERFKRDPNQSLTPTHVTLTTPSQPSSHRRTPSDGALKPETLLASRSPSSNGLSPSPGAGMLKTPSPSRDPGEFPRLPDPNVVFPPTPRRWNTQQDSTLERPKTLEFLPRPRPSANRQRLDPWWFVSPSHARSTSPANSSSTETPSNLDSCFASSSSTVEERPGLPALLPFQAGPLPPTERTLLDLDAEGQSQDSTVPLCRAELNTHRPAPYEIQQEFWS
T6 sequence (O75716 whole entry): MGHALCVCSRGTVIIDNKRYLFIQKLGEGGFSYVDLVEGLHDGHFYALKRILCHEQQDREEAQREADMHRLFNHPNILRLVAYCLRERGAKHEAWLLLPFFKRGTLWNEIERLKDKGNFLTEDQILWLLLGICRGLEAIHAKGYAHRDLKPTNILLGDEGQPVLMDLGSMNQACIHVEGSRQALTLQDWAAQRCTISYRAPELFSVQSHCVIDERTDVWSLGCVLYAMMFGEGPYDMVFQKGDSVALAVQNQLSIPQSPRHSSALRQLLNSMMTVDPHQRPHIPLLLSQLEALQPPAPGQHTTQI
T4 sequence (P35916 25-1363): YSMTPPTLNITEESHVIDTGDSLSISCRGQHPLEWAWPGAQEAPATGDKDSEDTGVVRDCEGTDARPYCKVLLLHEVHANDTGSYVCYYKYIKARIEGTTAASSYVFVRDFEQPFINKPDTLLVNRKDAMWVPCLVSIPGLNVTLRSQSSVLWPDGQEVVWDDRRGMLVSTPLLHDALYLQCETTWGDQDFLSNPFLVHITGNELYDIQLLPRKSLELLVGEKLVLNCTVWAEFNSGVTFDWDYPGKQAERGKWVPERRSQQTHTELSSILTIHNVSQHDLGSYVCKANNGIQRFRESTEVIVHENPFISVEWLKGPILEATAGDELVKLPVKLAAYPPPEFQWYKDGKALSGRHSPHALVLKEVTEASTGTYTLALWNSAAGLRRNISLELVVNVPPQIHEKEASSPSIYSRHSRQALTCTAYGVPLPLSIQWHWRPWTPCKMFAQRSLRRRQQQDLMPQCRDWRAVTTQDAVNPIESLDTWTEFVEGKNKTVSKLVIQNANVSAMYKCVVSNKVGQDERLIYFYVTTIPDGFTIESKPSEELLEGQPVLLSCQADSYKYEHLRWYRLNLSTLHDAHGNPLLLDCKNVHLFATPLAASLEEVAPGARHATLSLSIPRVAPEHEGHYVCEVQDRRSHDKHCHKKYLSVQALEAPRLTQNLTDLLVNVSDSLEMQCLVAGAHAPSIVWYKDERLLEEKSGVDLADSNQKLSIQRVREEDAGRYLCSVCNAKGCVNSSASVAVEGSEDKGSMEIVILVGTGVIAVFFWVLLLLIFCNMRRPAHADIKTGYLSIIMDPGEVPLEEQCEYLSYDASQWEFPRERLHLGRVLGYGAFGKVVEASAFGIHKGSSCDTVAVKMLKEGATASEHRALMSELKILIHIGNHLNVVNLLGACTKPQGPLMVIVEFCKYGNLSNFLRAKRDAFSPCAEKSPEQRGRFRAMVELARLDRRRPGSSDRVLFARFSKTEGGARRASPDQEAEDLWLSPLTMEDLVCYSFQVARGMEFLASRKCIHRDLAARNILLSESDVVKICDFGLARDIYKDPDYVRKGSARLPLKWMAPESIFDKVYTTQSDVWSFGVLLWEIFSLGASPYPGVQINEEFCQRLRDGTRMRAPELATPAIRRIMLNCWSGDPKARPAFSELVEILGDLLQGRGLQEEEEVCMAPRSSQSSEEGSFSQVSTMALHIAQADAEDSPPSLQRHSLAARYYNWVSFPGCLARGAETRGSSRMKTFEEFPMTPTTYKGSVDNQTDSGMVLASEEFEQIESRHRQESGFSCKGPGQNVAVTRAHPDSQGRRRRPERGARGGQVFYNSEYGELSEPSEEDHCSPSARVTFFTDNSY
T7 sequence (P78368 whole entry): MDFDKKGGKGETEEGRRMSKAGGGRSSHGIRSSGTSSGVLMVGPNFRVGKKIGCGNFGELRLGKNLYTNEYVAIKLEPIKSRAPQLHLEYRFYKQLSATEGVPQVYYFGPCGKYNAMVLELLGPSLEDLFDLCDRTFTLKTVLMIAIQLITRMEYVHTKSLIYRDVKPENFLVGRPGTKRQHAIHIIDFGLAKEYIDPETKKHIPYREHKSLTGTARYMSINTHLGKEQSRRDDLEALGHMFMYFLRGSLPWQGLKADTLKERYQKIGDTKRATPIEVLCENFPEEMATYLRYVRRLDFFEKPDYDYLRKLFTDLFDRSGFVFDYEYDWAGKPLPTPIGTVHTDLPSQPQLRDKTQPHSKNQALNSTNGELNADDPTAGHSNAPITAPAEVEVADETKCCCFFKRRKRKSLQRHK
T8 sequence (P19784 whole entry): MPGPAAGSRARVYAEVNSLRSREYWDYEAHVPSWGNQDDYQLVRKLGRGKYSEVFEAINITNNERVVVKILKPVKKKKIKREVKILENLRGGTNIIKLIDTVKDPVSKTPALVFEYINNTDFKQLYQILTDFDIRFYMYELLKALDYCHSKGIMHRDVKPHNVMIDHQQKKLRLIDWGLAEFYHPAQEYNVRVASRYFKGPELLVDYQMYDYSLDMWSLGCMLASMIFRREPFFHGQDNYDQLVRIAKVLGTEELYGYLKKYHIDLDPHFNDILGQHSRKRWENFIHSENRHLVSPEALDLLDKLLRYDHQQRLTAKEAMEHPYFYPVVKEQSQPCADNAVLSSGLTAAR
T1 sequence (Q02779 whole entry): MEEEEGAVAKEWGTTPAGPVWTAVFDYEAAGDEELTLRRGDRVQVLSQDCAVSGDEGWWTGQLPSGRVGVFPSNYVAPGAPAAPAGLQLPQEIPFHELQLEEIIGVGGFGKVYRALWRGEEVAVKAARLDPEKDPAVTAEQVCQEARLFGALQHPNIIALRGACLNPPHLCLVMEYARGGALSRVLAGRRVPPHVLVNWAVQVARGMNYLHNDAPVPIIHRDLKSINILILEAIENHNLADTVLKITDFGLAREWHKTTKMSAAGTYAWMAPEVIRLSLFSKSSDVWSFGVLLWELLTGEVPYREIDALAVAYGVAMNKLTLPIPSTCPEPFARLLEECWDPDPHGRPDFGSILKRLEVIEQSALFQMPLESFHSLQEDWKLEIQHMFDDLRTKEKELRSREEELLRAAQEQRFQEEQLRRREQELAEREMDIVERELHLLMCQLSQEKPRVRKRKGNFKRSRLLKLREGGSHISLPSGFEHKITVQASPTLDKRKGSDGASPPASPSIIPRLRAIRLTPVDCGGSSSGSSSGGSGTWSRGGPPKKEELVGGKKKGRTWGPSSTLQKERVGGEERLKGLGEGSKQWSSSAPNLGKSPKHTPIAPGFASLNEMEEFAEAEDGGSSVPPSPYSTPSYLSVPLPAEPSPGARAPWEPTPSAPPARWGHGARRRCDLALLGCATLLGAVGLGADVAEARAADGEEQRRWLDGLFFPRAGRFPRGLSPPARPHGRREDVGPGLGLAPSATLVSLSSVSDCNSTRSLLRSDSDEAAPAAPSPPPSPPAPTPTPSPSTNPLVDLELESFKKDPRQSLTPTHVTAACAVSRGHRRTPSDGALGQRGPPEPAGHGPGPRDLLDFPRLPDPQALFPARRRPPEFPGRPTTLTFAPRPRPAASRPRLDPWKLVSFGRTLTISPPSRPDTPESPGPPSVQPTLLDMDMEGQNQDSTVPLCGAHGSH

C=CC(=O)Nc1cc(-c2cc(-c3cc4c([nH]3)CCNC4=O)ccn2)ccc1OC(F)(F)F [compound 11]
inhibition at 0.01 µM ([1]; 10 nM): -5%
inhibition at 0.1 µM ([1]; 100 nM): 2%
inhibition at 1 µM ([1]; 1000 nM): 10%
inhibition at 0.01 µM ([2]; 10 nM): 0%
inhibition at 0.1 µM ([2]; 100 nM): 8%
inhibition at 1 µM ([2]; 1000 nM): 47%
inhibition at 0.01 µM ([3]; 10 nM): 5%
inhibition at 0.1 µM ([3]; 100 nM): -2%
inhibition at 1 µM ([3]; 1000 nM): -14%
inhibition at 0.01 µM ([4]; 10 nM): -8%
inhibition at 0.1 µM ([4]; 100 nM): 5%
inhibition at 1 µM ([4]; 1000 nM): 43%
inhibition at 0.01 µM ([5]; 10 nM): -3%
inhibition at 0.1 µM ([5]; 100 nM): 0%
inhibition at 1 µM ([5]; 1000 nM): 10%
inhibition at 0.01 µM ([6]; 10 nM): 0%
inhibition at 0.1 µM ([6]; 100 nM): -3%
inhibition at 1 µM ([6]; 1000 nM): 11%
inhibition at 0.01 µM ([7]; 10 nM): -7%
inhibition at 0.1 µM ([7]; 100 nM): 29%
inhibition at 1 µM ([7]; 1000 nM): 74%
inhibition at 0.01 µM ([8]; 10 nM): 10%
inhibition at 0.1 µM ([8]; 100 nM): 14%
inhibition at 1 µM ([8]; 1000 nM): 26%
